# Article PMC9994260, “Cryo-EM structure of the RADAR supramolecular anti-phage defense complex” (Cell, 2023)
# “And” between values parts separate entries of the source, which are not always exact repeats. Equal values may be shown once.
# Assays:
# E. coli RdrA (EcRdrA) = target: T1, E. coli RdrA (EcRdrA) (Escherichia coli, UniProt A0AAN0NNX5); assay: malachite green phosphate release (NTPase); assay type: biochemical; conditions: 1 mM NTP, 5 μM RdrA, 2 h, pH 7.5, 10 mM MgCl2, 50 mM KCl, 1 mM TCEP
# T1 construct: full-length, N-terminal 6xHis-SUMO2 tag removed by SENP2, expressed in E. coli BL21-RIL; heptamer, active site between neighbouring subunits; Walker A G81, K82, T83, Walker B D221, D222
# T1 sequence (A0AAN0NNX5 1-947): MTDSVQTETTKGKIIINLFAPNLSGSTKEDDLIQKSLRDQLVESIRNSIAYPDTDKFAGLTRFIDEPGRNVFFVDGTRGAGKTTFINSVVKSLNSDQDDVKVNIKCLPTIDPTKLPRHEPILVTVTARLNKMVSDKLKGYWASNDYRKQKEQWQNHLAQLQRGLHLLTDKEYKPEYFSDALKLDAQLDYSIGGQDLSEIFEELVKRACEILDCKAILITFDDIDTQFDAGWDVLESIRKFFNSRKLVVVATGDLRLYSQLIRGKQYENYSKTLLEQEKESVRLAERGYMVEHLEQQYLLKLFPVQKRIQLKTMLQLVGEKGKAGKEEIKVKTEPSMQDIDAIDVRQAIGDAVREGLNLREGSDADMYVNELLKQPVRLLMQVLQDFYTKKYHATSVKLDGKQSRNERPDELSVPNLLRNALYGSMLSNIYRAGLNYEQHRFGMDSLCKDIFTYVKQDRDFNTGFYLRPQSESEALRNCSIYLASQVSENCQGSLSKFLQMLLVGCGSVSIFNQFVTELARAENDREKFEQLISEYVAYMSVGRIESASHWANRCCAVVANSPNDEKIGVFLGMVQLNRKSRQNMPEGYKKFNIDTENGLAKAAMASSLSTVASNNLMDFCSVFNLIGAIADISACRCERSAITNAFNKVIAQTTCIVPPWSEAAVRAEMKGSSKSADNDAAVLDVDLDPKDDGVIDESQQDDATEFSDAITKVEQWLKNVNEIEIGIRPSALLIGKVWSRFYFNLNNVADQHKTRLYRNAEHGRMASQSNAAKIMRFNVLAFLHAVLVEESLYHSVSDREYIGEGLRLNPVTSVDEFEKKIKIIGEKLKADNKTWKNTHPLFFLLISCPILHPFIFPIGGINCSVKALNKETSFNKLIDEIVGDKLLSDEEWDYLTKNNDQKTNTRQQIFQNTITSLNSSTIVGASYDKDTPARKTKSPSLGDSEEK
# E. coli RdrB (EcRdrB) [1] = target: T2, E. coli RdrB (EcRdrB) (Escherichia coli, UniProt A0AAN0NNX4); assay: HPLC deamination assay (ATP to ITP) after phosphatase treatment; assay type: biochemical; conditions: 1 mM substrate, 1 μM RdrB, 30 min, 37 °C, pH 7.5, 10 mM MgCl2, 100 μM ZnSO4, 50 mM KCl, 1 mM TCEP
# T2 construct: full-length, ~90 kDa, N-terminal 6xHis-SUMO2 tag removed by SENP2, expressed in E. coli BL21-RIL; dodecamer; Zn site H152, H154, H498, H530, catalytic E501
# T2 sequence (A0AAN0NNX4 1-799): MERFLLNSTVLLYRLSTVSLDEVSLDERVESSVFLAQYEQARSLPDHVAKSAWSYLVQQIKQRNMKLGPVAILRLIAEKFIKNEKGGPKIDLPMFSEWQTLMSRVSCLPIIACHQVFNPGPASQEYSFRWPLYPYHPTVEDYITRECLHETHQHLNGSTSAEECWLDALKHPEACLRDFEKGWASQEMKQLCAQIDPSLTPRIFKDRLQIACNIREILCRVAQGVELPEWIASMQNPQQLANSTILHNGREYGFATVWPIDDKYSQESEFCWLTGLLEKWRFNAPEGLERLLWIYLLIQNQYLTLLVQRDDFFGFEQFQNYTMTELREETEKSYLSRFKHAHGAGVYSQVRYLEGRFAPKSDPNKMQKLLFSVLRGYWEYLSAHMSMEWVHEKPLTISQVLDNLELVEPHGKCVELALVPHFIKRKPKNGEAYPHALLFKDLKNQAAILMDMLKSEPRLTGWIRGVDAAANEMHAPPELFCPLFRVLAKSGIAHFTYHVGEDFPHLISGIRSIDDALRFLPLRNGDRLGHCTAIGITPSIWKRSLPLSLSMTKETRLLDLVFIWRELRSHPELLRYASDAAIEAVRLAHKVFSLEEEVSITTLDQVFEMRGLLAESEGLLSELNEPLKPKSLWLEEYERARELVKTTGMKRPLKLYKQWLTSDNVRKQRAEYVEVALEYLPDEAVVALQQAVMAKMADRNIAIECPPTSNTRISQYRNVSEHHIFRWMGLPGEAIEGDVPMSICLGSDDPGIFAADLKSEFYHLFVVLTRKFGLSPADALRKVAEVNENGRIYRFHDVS
# E. coli RdrB (EcRdrB) [2] = target: T2, E. coli RdrB (EcRdrB); assay: HPLC deamination assay (dATP to dITP) after phosphatase treatment; assay type: biochemical; conditions: 1 mM substrate, 1 μM RdrB, 30 min, 37 °C, pH 7.5, 10 mM MgCl2, 100 μM ZnSO4, 50 mM KCl, 1 mM TCEP
# [3] = target: E. coli RdrA (RADAR system of E. coli P0304799.3) (E. coli P0304799.3); assay: cryo-EM structure; purified E. coli RdrA alone, 2.40 mg/mL, vitrified at 4°C; Titan Krios 300 kV
# [4] = target: E. coli RdrB (RADAR system of E. coli P0304799.3) (E. coli P0304799.3); assay: cryo-EM structure; purified E. coli RdrB alone, 2.35 mg/mL, vitrified at 4°C; Titan Krios 300 kV
# [5] = target: S. suis RdrA (RADAR system of Streptococcus suis SS993) (Streptococcus suis SS993); assay: cryo-EM structure; purified S. suis RdrA alone; Talos Arctica 200 kV; single heptameric rings and double stacked rings picked
molecule,measurement,setting,value
Nc1ncnc2c1ncn2[C@@H]1O[C@H](COP(=O)(O)OP(=O)(O)OP(=O)(O)O)[C@@H](O)[C@H]1O [ATP],malachite green phosphate release (NTPase),E. coli RdrA (EcRdrA),RdrA is an active ATPase in vitro that preferentially hydrolyzes ATP
same,HPLC deamination assay (ATP to ITP) after phosphatase treatment,E. coli RdrB (EcRdrB) [1],E. coli RdrB robustly deaminates both ATP and dATP substrates with equal efficiency
O=c1[nH]cnc2c1ncn2[C@@H]1O[C@H](COP(=O)(O)OP(=O)(O)OP(=O)(O)O)[C@@H](O)[C@H]1O [ITP],malachite green phosphate release (NTPase),E. coli RdrA (EcRdrA); weak substrate,"Compared with ATP, RdrA only weakly hydrolyzes ITP and GTP"
Nc1ncnc2c1ncn2[C@H]1C[C@H](O)[C@@H](COP(=O)(O)OP(=O)(O)OP(=O)(O)O)O1 [dATP],HPLC deamination assay (dATP to dITP) after phosphatase treatment,E. coli RdrB (EcRdrB) [2],E. coli RdrB robustly deaminates both ATP and dATP substrates with equal efficiency
E. coli RdrA (RADAR system of E. coli P0304799.3) (enzyme),stoichiometry N,[3],7
E. coli RdrB (RADAR system of E. coli P0304799.3) (enzyme),stoichiometry N,[4],12
S. suis RdrA (RADAR system of Streptococcus suis SS993) (enzyme),stoichiometry N,[5],7 and 14
